# Patent US12404283B2, “c-MYC mRNA translation modulators and uses thereof in the treatment of cancer” (Anima Biotech Inc., priority 2022, dated 2025)
# System: c-Myc
# Experiment: c-Myc immunofluorescence assay
# Assay type: cell-based, human
# Settings: A549 cells, 24 hours treatment, anti-c-Myc immunofluorescence
# How it was run: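 High-content imaging (20×) of PFA-fixed A549 cells immunostained for c-Myc with DAPI nuclei, after 24 h compound treatment at increasing concentrations. Per-cell c-Myc signal in identified cell regions was plotted against dose and fitted by logistic regression to give EC50.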
row,Compound,Myc Efficacy (−LogEC50)
1,"CCN(CC)CCCNC(=O)c1ccc2c(c1)sc1nc(-c3ccc(C4COC4)cc3)cn12 [compound 173, N-(3-(diethylamino)propyl)-2-(4-(oxetan-3-yl)phenyl)benzo[d]imidazo [2,1-b]thiazole-7-carboxamide]",++ (++ ≥5 and <6)
2,"Cc1ccc(-c2cn3c(n2)sc2cc(C(=O)N4CCCCCC4)ccc23)cc1 [compound 102, Azepan-1-yl(2-(p-tolyl)benzo[d]imidazo[2,1-b]thiazol-7-yl)methanone]",+ (+ >3 and <5)
3,"C#CCCC1(CCOc2cccc(-c3cn4c(n3)sc3cc(C(=O)NCCCN(CC)CC)ccc34)c2)N=N1 [compound 327, 2-(3-(2-(3-(but-3-yn-1-yl)-3H-diazirin-3-yl)ethoxy)phenyl)-N-(3-(diethylamino)propyl)benzo [d]imidazo[2,1-b]thiazole-7-carboxamide]",+ (+ >3 and <5)
4,"CNC(=O)c1ccc(-c2cn3c(n2)sc2cc(C(=O)NC[C@H]4CCNC[C@@H]4O)ccc23)cc1 [compound 196, N-(((3R,4R)-3-hydroxypiperidin-4-yl)methyl)-2-(4-(methylcarbamoyl)phenyl) benzo[d]imidazo[2,1-b]thiazole-7-carboxamide]",+ (+ >3 and <5)
5,"O=C(NCCCN1CCC(F)CC1)c1ccc2c(c1)sc1nc(-c3ccc(-c4ncc[nH]4)cc3F)cn12 [compound 482, 2-(2-fluoro-4-(1H-imidazol-2-yl)phenyl)-N-(3-(4-fluoropiperidin-1-yl)propyl)benzo[d]imidazo[2,1-b]thiazole-7-carboxamide]",+++ (+++ ≥6)
6,"Cc1ccc(-c2cn3c(n2)sc2cc(C(=O)NCC4CNC4)ccc23)cc1 [compound 117, N-(azetidin-3-ylmethyl)-2-(p-tolyl)benzo[d]imidazo [2,1-b]thiazole-7-carboxamide]",+ (+ >3 and <5)
7,"O=C(NCCCN1CCC(F)CC1)c1ccc2c(c1)sc1nc(-c3ccc([C@@H]4CCCO4)cc3F)cn12 [Compound 428S, (S)-2-(2-fluoro-4-(tetrahydrofuran-2-yl)phenyl)-N-(3-(4-fluoropiperidin-1-yl)propyl)benzo[d]imidazo[2,1-b]thiazole-7-carboxamide]",+++ (+++ ≥6)
8,"CN1CCC(NC(=O)c2ccc3c(c2)sc2nc(-c4ccc([C@@H]5CCCN5)cc4F)cn23)CC1 [Compound 503S, (S)-2-(2-fluoro-4-(pyrrolidin-2-yl)phenyl)-N-(1-methylpiperidin-4-yl)benzo[d]imidazo[2,1-b]thiazole-7-carboxamide]",+++ (+++ ≥6)
9,"O=C(NC1CCOCC1)c1ccc2c(c1)sc1nc(-c3ccc(C4CNCCO4)cc3F)cn12 (centres unmarked) [Compound 535, 2-(2-fluoro-4-(morpholin-2-yl)phenyl)-N-(tetrahydro-2H-pyran-4-yl)benzo[d]imidazo[2,1-b]thiazole-7-carboxamide]",+++ (+++ ≥6)
10,"Cc1cccc(-c2cn3c(n2)sc2cc(C(=O)NCCCN4CCCC4)ccc23)c1 [compound 149, N-(3-(pyrrolidin-1-yl)propyl)-2-(m-tolyl)benzo[d]imidazo[2,1-b]thiazole-7-carboxamide]",++ (++ ≥5 and <6)
11,"O=C1CNC(c2ccc(-c3cn4c(n3)sc3cc(C(=O)NCCCN5CCC(F)CC5)ccc34)c(F)c2)C1 (centres unmarked) [Compound 507, 2-(2-fluoro-4-(4-oxopyrrolidin-2-yl)phenyl)-N-(3-(4-fluoropiperidin-1-yl)propyl)benzo[d]imidazo[2,1-b]thiazole-7-carboxamide]",+++ (+++ ≥6)
12,"CNC(=O)c1ccc2c(c1)sc1nc(-c3ccc(C4CCCN4)cc3F)cn12 (centres unmarked) [Compound 498, 2-(2-fluoro-4-(pyrrolidin-2-yl)phenyl)-N-methylbenzo[d]imidazo[2,1-b]thiazole-7-carboxamide]",+++ (+++ ≥6)
13,"CCN(CC)CCCNC(=O)c1ccc2c(c1)sc1nc(-c3ccc(C(=O)NC)cc3)nn12 [compound 328, N-(3-(diethylamino)propyl)-2-(4-(methylcarbamoyl)phenyl) benzo[4,5]thiazolo[3,2-b][1,2,4]triazole-6-carboxamide]",++ (++ ≥5 and <6)
14,"O=C(NCCCN1CCCCC1)c1ccc2c(c1)sc1nc(-c3ccc([C@@H]4CCCN4)cc3F)nn12 [compound 422, (S)-2-(2-fluoro-4-(pyrrolidin-2-yl)phenyl)-N-(3-(piperidin-1-yl)propyl)benzo[4,5]thiazolo [3,2-b][1,2,4]triazole-6-carboxamide]",+++ (+++ ≥6)
15,CCN(CC)CCCNC(=O)c1ccc2c(c1)sc1nc(-c3ccc(C(=O)NC)c(F)c3)cn12 [compound 291],+ (+ >3 and <5)
16,"CNC(=O)c1ccc(-c2cn3c(n2)sc2cc(C(=O)NCC4(C)CCOC4)ccc23)cc1 (centres unmarked) [compound 210, 2-(4-(methylcarbamoyl)phenyl)-N-((3-methyltetrahydrofuran-3-yl)methyl)benzo[d]imidazo [2,1-b]thiazole-7-carboxamide]",+ (+ >3 and <5)

row,Compound,Myc Efficacy (−LogEC50)
1,"O=C(NCCCN1CCC(F)CC1)c1ccc2c(c1)sc1nc(-c3ccc([C@H]4CCCO4)cc3F)cn12 [Compound 428R, (R)-2-(2-fluoro-4-(tetrahydrofuran-2-yl)phenyl)-N-(3-(4-fluoropiperidin-1-yl)propyl)benzo[d]imidazo[2,1-b]thiazole-7-carboxamide]",++ (++ ≥5 and <6)
2,"CN1CCC(NC(=O)c2ccc3c(c2)sc2nc(-c4ccc(C5(F)CCNCC5)cc4F)cn23)CC1 [Compound 536, 2-(2-fluoro-4-(4-fluoropiperidin-4-yl)phenyl)-N-(1-methylpiperidin-4-yl)benzo[d]imidazo[2,1-b]thiazole-7-carboxamide]",+++ (+++ ≥6)
3,"NCc1ccc(-c2nc3sc4cc(C(=O)NCCCN5CCC(F)CC5)ccc4n3n2)c(F)c1 [compound 390, 2-(4-(aminomethyl)-2-fluorophenyl)-N-(3-(4-fluoropiperidin-1-yl)propyl)benzo[4,5]thiazolo [3,2-b][1,2,4]triazole-6-carboxamide]",++ (++ ≥5 and <6)
4,"CNC(=O)c1ccc(-c2cn3c(n2)sc2cc(C(=O)NC4CCCCC4N)ccc23)cc1 (centres unmarked) [compound 205, N-(2-aminocyclohexyl)-2-(4-(methylcarbamoyl)phenyl) benzo[d]imidazo[2,1-b]thiazole-7-carboxamide]",+ (+ >3 and <5)
5,"NCc1ccc(-c2nc3sc4cc(C(=O)NCCCN5CCCCC5)ccc4n3n2)c(F)c1 [compound 387, 2-(4-(aminomethyl)-2-fluorophenyl)-N-(3-(piperidin-1-yl)propyl)benzo[4,5]thiazolo [3,2-b][1,2,4]triazole-6-carboxamide]",+++ (+++ ≥6)
6,"O=C(NCCCN1CCCCC1)c1ccc2c(c1)sc1nc(-c3ccc([C@H]4CCCN4)cc3F)nn12 [compound 421, (R)-2-(2-fluoro-4-(pyrrolidin-2-yl)phenyl)-N-(3-(piperidin-1-yl)propyl)benzo[4,5]thiazolo [3,2-b][1,2,4]triazole-6-carboxamide]",++ (++ ≥5 and <6)
7,"CNC(=O)c1ccc(-c2cn3c(n2)sc2cc(C(=O)NCCCN4CCCC4)ccc23)c(F)c1 [compound 321, 2-(2-fluoro-4-(methylcarbamoyl)phenyl)-N-(3-(pyrrolidin-1-yl)propyl)benzo[d]imidazo [2,1-b]thiazole-7-carboxamide]",++ (++ ≥5 and <6)
8,"CCN1CCC[C@@H]1CNC(=O)c1ccc2c(c1)sc1nc(-c3cccc(OC)c3)cn12 [compound 127, (R)-N-((1-ethylpyrrolidin-2-yl)methyl)-2-(3-methoxyphenyl)benzo[d] imidazo[2,1-b]thiazole-7-carboxamide]",+ (+ >3 and <5)
9,"Cc1cccc(-c2cn3c(n2)sc2cc(C(=O)N4CCNCC4)ccc23)c1 [compound 141, piperazin-1-yl(2-(m-tolyl)benzo[d]imidazo[2,1-b]thiazol-7-yl)methanone]",+ (+ >3 and <5)
10,"CNC(=O)c1ccc(-c2cn3c(n2)sc2cc(C(=O)NCCN(C(C)C)C(C)C)ccc23)cc1 [compound 217, N-(2-(diisopropylamino)ethyl)-2-(4-(methylcarbamoyl)phenyl) benzo[d]imidazo[2,1-b]thiazole-7-carboxamide]",+ (+ >3 and <5)
11,"CCN(CC)CCCNC(=O)c1ccc2c(c1)sc1nc(-c3ccc([C@@H]4CCCN4)cc3)cn12 [compound 415, (S)-N-(3-(diethylamino)propyl)-2-(4-(pyrrolidin-2-yl)phenyl)benzo[d]imidazo [2,1-b]thiazole-7-carboxamide]",+++ (+++ ≥6)
12,"CCN(CCCNC(=O)c1ccc2c(c1)sc1nc(-c3cccc(C)c3)cn12)CC(F)(F)F [compound 177, N-(3-(ethyl(2,2,2-trifluoroethyl)amino)propyl)-2-(m-tolyl)benzo[d]imidazo[2,1-b]thiazole-7-carboxamide]",+ (+ >3 and <5)
13,"Cc1cccc(-c2cn3c(n2)sc2cc(NC(=O)N4CCNCC4)ccc23)c1 [compound 265, N-(2-(m-tolyl)benzo[d]imidazo[2,1-b]thiazol-7-yl)piperazine-1-carboxamide]",+ (+ >3 and <5)
14,"CNC(=O)c1ccc(-c2cn3c(n2)sc2cc(C(=O)NCC4(C)CNC4)ccc23)cc1 [compound 278, N-((3-methylazetidin-3-yl)methyl)-2-(4-(methylcarbamoyl)phenyl) benzo[d]imidazo[2,1-b]thiazole-7-carboxamide]",− (− ≤3)
15,"CNC(=O)c1ccc(-c2cn3c(n2)sc2cc(C(=O)NC(C)C4CCOCC4)ccc23)cc1 (centres unmarked) [compound 234, 2-(4-(methylcarbamoyl)phenyl)-N-(1-(tetrahydro-2H-pyran-4-yl)ethyl)benzo[d]imidazo [2,1-b]thiazole-7-carboxamide]",+ (+ >3 and <5)
16,"CCN(CC)CCCNC(=O)c1ccc2c(c1)sc1nc(-c3cccc(F)c3)cn12 [compound 130, N-(3-(diethylamino)propyl)-2-(3-fluorophenyl)benzo[d] imidazo[2,1-b]thiazole-7-carboxamide]",++ (++ ≥5 and <6)
